From patent publication EP4122917A1, “C2-THIOETHER […] AND TETRAMERS AND USE THEREOF” (priority 2021, dated 2023) come the findings set out here.

Each structure is given as a SMILES string. Where two headings read alike, the source gives them in different places. A value given as a limit tells only on which side of the number the result lay.

Series [1] has as its system Pseudotyped vesicular stomatitis virus (VSV) carrying a codon-optimized S protein of the Wuhan SARS-CoV-2 strain. It is filed as cell-based. To be noted: read-out: IC50 (µM) Pseudotype VSV (Vero).
Series [2] shares this test system. In kind it is cell-based. The settings on record: read-out: IC50 (µM) Pseudotype VSV (A549ACE2-TM PRSS2).
Series [3] in a line: in vitro. The settings on record: monkey, vero cells.
Series [4] is described as follows: in vitro. To be noted: human, a549-ace2-tmprss2 cells.
Series [5] in a line: in vitro. The settings on record: monkey, vero-e6 cells.

What is called IC50 is the concentration that inhibits the measured activity by half. A word on the CC50: it is the concentration giving 50% cytotoxicity. Low readings indicate greater toxicity to the cells, high ones lower toxicity to the cells. As for `NCC(=O)NC(CCC(=O)N[C@@H](Cc1c(Sc2ccc([N+](=O)[O-])cc2)[nH]c2ccccc12)C(=O)O)(CCC(=O)N[C@@H](Cc1c(Sc2ccc([N+](=O)[O-])cc2)[nH]c2ccccc12)C(=O)O)CCC(=O)N[C@@H](Cc1c(Sc2ccc([N+](=O)[O-])cc2)[nH]c2ccccc12)C(=O)O` [Compound 7a], the half-inhibitory concentration (IC50) in series [1] worked out at 0.23 µM; in series [2], 2.4 µM. The CC50 in series [3] and in series [4] was > 100 µM in each case. Further, the cytotoxic concentration (CC50) at 24 h in series [5] is > 100 µM.
For `NCC(=O)NC(CCC(=O)N[C@@H](Cc1c(Sc2ccc(C(F)(F)F)cc2)[nH]c2ccccc12)C(=O)O)(CCC(=O)N[C@@H](Cc1c(Sc2ccc(C(F)(F)F)cc2)[nH]c2ccccc12)C(=O)O)CCC(=O)N[C@@H](Cc1c(Sc2ccc(C(F)(F)F)cc2)[nH]c2ccccc12)C(=O)O` [Compound 7d], the IC50 in series [1] is 15.1 µM; in series [2] it was 9.35 µM. Moreover, the 50% cytotoxic concentration (CC50) in series [3] and in series [4] was > 100 µM each time.
On to `NCC(=O)NC(CCC(=O)N[C@@H](Cc1c(Sc2cccc([N+](=O)[O-])c2)[nH]c2ccccc12)C(=O)O)(CCC(=O)N[C@@H](Cc1c(Sc2cccc([N+](=O)[O-])c2)[nH]c2ccccc12)C(=O)O)CCC(=O)N[C@@H](Cc1c(Sc2cccc([N+](=O)[O-])c2)[nH]c2ccccc12)C(=O)O` [Compound 7b], for which the 50% inhibitory concentration (IC50) in series [1] was 13 µM; in series [2], 6.44 µM. The CC50 in series [3] and in series [4] was > 100 µM in each case.
Turning to `CC(=O)c1ccc(Sc2[nH]c3ccccc3c2C[C@H](NC(=O)CCC(CCC(=O)N[C@@H](Cc2c(Sc3ccc(C(C)=O)cc3)[nH]c3ccccc23)C(=O)O)(CCC(=O)N[C@@H](Cc2c(Sc3ccc(C(C)=O)cc3)[nH]c3ccccc23)C(=O)O)NC(=O)CN)C(=O)O)cc1` [Compound 7c], the IC50 in series [1] was determined as 1.4 µM; in series [2] it was 1.94 µM. The CC50 in series [3] and in series [4] was > 100 µM in each case. In series [5], the half-maximal cytotoxic concentration (CC50) at 24 h was > 100 µM.
For the molecule `NCC(=O)NC(CCC(=O)N[C@@H](Cc1c(Sc2ccc(F)cc2)[nH]c2ccccc12)C(=O)O)(CCC(=O)N[C@@H](Cc1c(Sc2ccc(F)cc2)[nH]c2ccccc12)C(=O)O)CCC(=O)N[C@@H](Cc1c(Sc2ccc(F)cc2)[nH]c2ccccc12)C(=O)O` [Compound 7f], the IC50 in series [1] was 28.4 µM; in series [2], 31 µM. Besides, the CC50 in series [3] and in series [4] was > 100 µM each time.
As for `N#Cc1ccc(Sc2[nH]c3ccccc3c2C[C@H](NC(=O)CCC(CCC(=O)N[C@@H](Cc2c(Sc3ccc(C#N)cc3)[nH]c3ccccc23)C(=O)O)(CCC(=O)N[C@@H](Cc2c(Sc3ccc(C#N)cc3)[nH]c3ccccc23)C(=O)O)NC(=O)CN)C(=O)O)cc1` [Compound 7e], the IC50 in series [1] amounted to 13.9 µM; in series [2] it was 8.8 µM. Moreover, the CC50 in series [3] and in series [4] was > 100 µM throughout.
